Data: US10899769B2, “Imidazopiperazinone inhibitors of transcription activating proteins” (Board of Regents, The University of Texas System, priority 2018, dated 2021)
pIC50: −log10 of the molar value.

Experiments:
[1] = biological target: GST-CBP(1081-1197) bromodomain (Homo sapiens (Human), UniProt Q92793); experiment: CBP AlphaScreen Assay; settings: binding to biotin-H4(1-21) Ac-K5/8/12/16
Method in brief: (§1)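 AlphaScreen binding of GST-bromodomain to biotin-H4(1-21) Ac-K5/8/12/16: 5 nM CBP with 20 nM peptide, or 2.5 nM BRD4 with 10 nM peptide, in 50 mM HEPES 7.5, […], 1 mM TCEP, 0.003% Tween-20. Compound preincubated 30 min, then beads 2 h, room temperature. IC50 from variable-slope fit.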

BRD4(49-170) bromodomain = BRD4(49-170) bromodomain (Homo sapiens (Human), UniProt O60885); experiment: BRD4 AlphaScreen Assay; settings: binding to biotin-H4(1-21) Ac-K5/8/12/16
Method in brief: as §1

Chain of GST-CBP(1081-1197) bromodomain (Q92793 1081-1197): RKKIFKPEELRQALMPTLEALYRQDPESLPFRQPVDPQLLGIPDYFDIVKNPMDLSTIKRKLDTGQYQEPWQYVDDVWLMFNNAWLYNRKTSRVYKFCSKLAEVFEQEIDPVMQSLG

| Compound | pIC50 [1] | pIC50 (BRD4(49-170) bromodomain) |
| --- | --- | --- |
| CC1C(=O)N(C)Cc2c(-c3cccc4nc(-c5cnn(C)c5)c(C(F)F)cc34)nc(C3CN(CCO)C3)n21 (centres unmarked) [Example 28, 1-(3-(Difluoromethyl)-2-(1-methyl-1H-pyrazol-4-yl)quinolin-5-yl)-3-(1-(2-hydroxyethyl)azetidin-3-yl)-5,7-dimethyl-7,8-dihydroimidazo[1,5-a]pyrazin-6(5H)-one] | 6.91 | 5.03 |
| CC1C(=O)N(C)Cc2c(-c3c(F)ccc4nc(-c5cnn(C)c5)c(C(F)(F)F)cc34)nc(C3CCOCC3)n21 (centres unmarked) [Example 35, 1-(6-Fluoro-2-(1-methyl-1H-pyrazol-4-yl)-3-(trifluoromethyl)quinolin-5-yl)-5,7-dimethyl-3-(tetrahydro-2H-pyran-4-yl)-7,8-dihydroimidazo[1,5-a]pyrazin-6(5H)-one] | 5.92 | 4.60 |
| CC1C(=O)N(C)Cc2c(-c3cc4c(-c5cnn(C)c5)nn(C)c4cc3F)nc(C3CCOCC3)n21 (centres unmarked) [Example 43, 1-(6-Fluoro-1-methyl-3-(1-methyl-1H-pyrazol-4-yl)-1H-indazol-5-yl)-5,7-dimethyl-3-(tetrahydro-2H-pyran-4-yl)-7,8-dihydroimidazo[1,5-a]pyrazin-6(5H)-one 2,2,2-trifluoroacetate] | 8.22 | 5.84 |
| CC1C(=O)N(C)Cc2c(-c3cccc4nc(-c5nsc(=O)[nH]5)c(C(F)F)cc34)nc(C3CC3)n21 (centres unmarked) [Example 46, 3-(5-(3-Cyclopropyl-5,7-dimethyl-6-oxo-5,6,7,8-tetrahydroimidazo[1,5-a]pyrazin-1-yl)-3-(difluoromethyl)quinolin-2-yl)-1,2,4-thiadiazol-5(4H)-one] | 8.70 | 6.47 |
| CCN1Cc2c(N3CCCc4cc(-c5cnn(C)c5)c(C(F)F)cc43)nc(C3CC3)n2CC1=O [Example 48, 3-cyclopropyl-1-(7-(difluoromethyl)-6-(1-methyl-1H-pyrazol-4-yl)-3,4-dihydroquinolin-1(2H)-yl)-7-ethyl-7,8-dihydroimidazo[1,5-a] pyrazin-6(5H)-one] | 7.74 | 4.75 |

Continued, values first:

| pIC50 [1] | pIC50 (BRD4(49-170) bromodomain) | Compound |
| --- | --- | --- |
| 6.73 | 4.60 | CN1Cc2c(N3CCCc4nc(-c5cnn(C)c5)c(C(F)(F)F)cc43)nc(C3CC3)n2CC1=O [Example 39, 3-Cyclopropyl-7-methyl-1-(6-(1-methyl-1H-pyrazol-4-yl)-7-(trifluoromethyl)-3,4-dihydro-1,5-naphthyridin-1(2H)-yl)-7,8-dihydroimidazo[1,5-a]pyrazin-6(5H)-one] |
| 8.05 | 5.98 | CC1C(=O)N(C)Cc2c(-c3ccc4c(c3)c(-c3cnn(C)c3)nn4C)nc(C3CCOCC3)n21 (centres unmarked) [Example 40, 5,7-Dimethyl-1-(1-methyl-3-(1-methyl-1H-pyrazol-4-yl)-1H-indazol-5-yl)-3-(tetrahydro-2H-pyran-4-yl)-7,8-dihydroimidazo[1,5-a]pyrazin-6(5H)-one] |
| 7.85 | 5.79 | CC1C(=O)N(C)Cc2c(-c3ccc4c(c3)c(-c3cnn(C)c3)nn4C)nc(C3=CCOCC3)n21 (centres unmarked) [Example 41, 3-(3,6-Dihydro-2H-pyran-4-yl)-5,7-dimethyl-1-(1-methyl-3-(1-methyl-1H-pyrazol-4-yl)-1H-indazol-5-yl)-7,8-dihydroimidazo[1,5-a]pyrazin-6(5H)-one] |
| 7.55 | 5.48 | CC1C(=O)N(C)Cc2c(-c3cc4c(-c5cnn(C)c5)nn(C)c4cc3F)nc(C3=CCOCC3)n21 (centres unmarked) [Example 42, 3-(3,6-Dihydro-2H-pyran-4-yl)-1-(6-fluoro-1-methyl-3-(1-methyl-1H-pyrazol-4-yl)-1H-indazol-5-yl)-5,7-dimethyl-7,8-dihydroimidazo[1,5-a]pyrazin-6(5H)-one] |
| 8.70 | 5.84 | CC1C(=O)N(C)Cc2c(-c3cccc4cc(-c5nsc(=O)[nH]5)ncc34)nc(C3CC3)n21 (centres unmarked) [Example 47, 3-(8-(3-Cyclopropyl-5,7-dimethyl-6-oxo-5,6,7,8-tetrahydroimidazo[1,5-a]pyrazin-1-yl)isoquinolin-3-yl)-1,2,4-thiadiazol-5(4H)-one] |
